Values belong to the molecule of their own block, whether it stands above or below them.
What was measured:
Panx1 channel = molecular target: T1, Panx1 channel (Mus musculus, UniProt Q9JIP4); experiment: YO-PRO-1 dye uptake assay in BV-2 microglia-like cells (BzATP stimulation); format: cell-based; conditions: BV-2 cells; pre-treatment; concentration not given
T1 construct: endogenous in cells; host or cells: BV-2 microglia-like cells
Protocol: After plating into 96 well plates, cell culture media was removed and BV-2 cells were incubated in extracellular solution (ECS) (140 mM NaCl, 4.5 mM KCl, 1.3 mM CaCl2, 10 mM HEPES, and 33 mM glucose; pH7.35, osmolarity 315 mOsm) containing YO-PRO-1 dye (2.5 μM, Invitrogen). After a 5 minute baseline recording, cells were stimulated with 3′-O-(4-benzoyl)benzoyl adenosine 5′-triphosphate (BzATP) (150 μM, Toronto Research Chemicals) and dye-uptake was recorded for 30 minutes. Cell viability was assessed immediately after the 30 minute recording by application of ionomycin (1 μM, Sigma). […] YO-PRO-1 fluorescent emission (491/509) was detected using a FilterMax F5 plate reader (Molecular Devices). Drugs used include (−)-norepinephrine (100 pM-1 μM, Sigma), probenecid (1 mM, Life Technologies), and Compound 1 (10 nM, Derksen et al). Drugs were bath applied in ECS containing YO-PRO-1 dye and incubated at 37° C. for 10 minutes prior to BzATP stimulation. Fluorescent emission at 30 minutes post-BzATP was calculated as an average of the entire imaging field as percent change from baseline, and responses at 30 minutes were averaged over multiple independent experiments. Individual traces of BV-2 YO-PRO-1 dye uptake were taken at 10 minute intervals and represent the average response of all BV-2 cells in the recorded view from a subset of experiments.
BV-2 microglia-like cells were maintained in DMEM (Gibco) containing 5% fetal bovine serum (Gibco) and 1% penicillin-streptomycin (Gibco) with 5% CO2.
The compounds tested were designed to more readily penetrate the blood brain barrier and were therefore predicted to require a lower dose to produce similar effects. Prior to testing the compounds in animals, the compounds were first tested in BV2 microglia-like cells using the YO-PRO-1 Dye Uptake Assay. By using this assay, Panx1 channel activity in response to BzATP stimulation of P2X7, an upstream receptor that causes Panx1 pore formation can be assessed. YO-PRO-1 is a large molecular weight dye that can only enter the cell through large pore ion channels such as Panx1, therefore its uptake correlates with Panx1 channel opening. BzATP stimulation causes a significant increase in YO-PRO-1 dye uptake in cells pre-treated with ECS and vehicle solution (0.1% DMSO) (FIG. 1, B).

[1] = molecular target: T2, rPanx1 (Rattus norvegicus Pannexin-1) expressed in 293T cells (Rattus norvegicus, UniProt P60570); experiment: Whole-cell patch-clamp of Panx1 currents in transfected 293T cells; format: cell-based, Homo sapiens
T2 construct: expressed in transfected cells; host or cells: Human embryonic kidney-293T cells (ATCC), transient Lipofectamine 2000 transfection
Protocol: To further compare the effects of probenecid, Compounds 1 and 5 on Pannexin-1 channels […] Panx-1 was expressed in embryonic kidney-293T cells (293T) and channel activity was assessed at various doses of each compound.
Rattus norvegicus Pannexin-1 (rPanx1) complementary DNA (cDNA) was cloned between BamHI and SalI sites in a pRK5 expression vector (pRK5-rPanx1). Enhanced green fluorescent protein (EGFP) plasmid (pEGFP-C1) was commercially purchased (addgene).
Human embryonic kidney-293T cells (293T) were purchased from ATCC and routinely maintained in the laboratory. Adherent 293T cells were grown in Dulbecco's modified Eagle's medium (Thermo Fisher) supplemented with 10% fetal bovine serum (Thermo Fisher) and 1% penicillin-streptomycin (10,000 U/mL; Thermo Fisher) at 37° C. in a 5% CO2 humidified growth incubator. 293T cells between the passages 6-20 were used for experiments. For patch-clamp recordings, 293T cells reaching 40-60% confluency on 35 mm culture plates were transiently transfected using Lipofectamine 2000 (Thermo Fisher) 36-48 hours before experiments, using the manufacturer's protocol. 293T cells were transfected with 2.5 μg pRK5-rPanx1 and 0.5 μg pEGFP-C1 cDNAs at a mixed ratio of 5:1 to identify positively transfected cells.
On the day of experiments, transiently transfected 293T cells overexpressing rPanx1 and EGFP cDNAs were seeded onto poly-d-lysine coated glass coverslips at least 2 hours before recordings. […] Data was acquired using Clampex (v.10) software and an Axon Digidata 1550A digitizer (Axon Instruments) at 10 kHz, with currents analyzed offline in Clampfit software (v.10.7). […]
293T cells were voltage clamped at −60 mV in whole-cell configuration and exposed to a 300 ms voltage ramp (−80 to +80 mV) before stepping back to −60 mV to record rPanx1 voltage-sensitive currents. Baseline currents were first measured in extracellular solution before perfusion of drug compounds in incrementally increasing concentrations. […]

C57BL/6J mice [2] = conditions: background statement; pharmacological blockade of Panx1; cited from earlier work
C57BL/6J mice [3] = experiment: Naloxone-precipitated morphine withdrawal, composite withdrawal score; format: in vivo; conditions: 50 mg/kg i.p., 60 minutes prior to naloxone
Protocol: Adult male C57BL/6J (7-9 weeks) mice were used. Mice were housed under 12/12 hour light/dark cycles with ad libitum access to food and water. Mice were randomly allocated to different test groups. All experiments were approved by the University of Calgary Animal Care Committee and are in accordance with the guidelines of the Canadian Council on Animal Care.
Morphine sulfate (MS, PCCA) prepared in 0.9% sterile saline solution was injected i.p. into male C57BLJ6J (20-30g) mice. Mice received ascending doses of morphine (i.p.) at 8 hours intervals: day 1, 10mg/kg; day 2, 20 mg/kg; day 3, 30 mg/kg; day 4, 40mg/kg. On day 5, mice received a morning injection of morphine (50 mg/kg). A subset of mice received probenecid (15, 25, and 50 mg/kg i.p., Invitrogen) or Compound 1 (0.1, 0.5 and 1 mg/kg) 1 hour following morphine. Mice then received i.p. naloxone (2 mg/kg, naloxone hydrochloride dihydrate, Sigma) 2 hours following morphine to rapidly induce opioid withdrawal. Control mice received equivalent volumes of 0.9% saline or appropriate vehicle solution (0.1% DMSO in saline) and were challenged with naloxone on day 5. Withdrawal behaviors were then scored for 30 minutes post naloxone injection. Behaviors were scored for occurrence and then scaled for severity at 5-minute intervals. Behaviors that were assigned a standardized score between 0-3 depending on severity were jumping, headshakes, wet-dog shakes, chewing/licking, and teeth chattering. Behaviors that were scored 1 point for presence during a 5-minute interval include piloerection and tremors/twitching. The mice were then weighed following the 30 minutes, and the weight difference was assigned a standardized score dependent on the weight change between 0-3 as well. The scaled and present/absent signs were compiled over the 30 minutes to produce a composite withdrawal score.
All data are presented as the mean±standard error mean (s.e.m), and each circle represents an individual animal or experiment. Tests of statistical difference were performed with GraphPad Prism 6 using either an ordinary one-way ANOVA with posthoc Dunnet test, or a two-way ANOVA with post hoc Sidak test. Sample sizes are consistent with those reported in similar studies and provide sufficient power to detect changes with the appropriate statistical analysis. For all experiments, a criterion a level was set at 0.05.

[4] = background statement; cited from earlier work
C57BL/6J mice [5] = experiment: Naloxone-precipitated morphine withdrawal, composite withdrawal score; format: in vivo; conditions: 50 mg/kg, 30 minutes before withdrawal

T1 sequence (Q9JIP4 whole entry): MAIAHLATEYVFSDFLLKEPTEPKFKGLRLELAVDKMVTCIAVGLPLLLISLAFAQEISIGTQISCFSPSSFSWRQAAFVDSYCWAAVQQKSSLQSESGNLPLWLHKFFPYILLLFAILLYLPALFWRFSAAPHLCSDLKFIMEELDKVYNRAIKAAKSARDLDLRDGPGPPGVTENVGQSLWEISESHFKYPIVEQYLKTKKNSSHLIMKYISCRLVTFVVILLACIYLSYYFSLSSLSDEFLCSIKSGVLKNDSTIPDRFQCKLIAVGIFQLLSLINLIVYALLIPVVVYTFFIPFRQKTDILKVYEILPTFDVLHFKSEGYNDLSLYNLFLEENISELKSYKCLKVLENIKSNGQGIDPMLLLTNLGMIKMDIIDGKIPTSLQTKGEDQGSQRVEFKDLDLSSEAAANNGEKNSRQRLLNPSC
T2 sequence (P60570 whole entry): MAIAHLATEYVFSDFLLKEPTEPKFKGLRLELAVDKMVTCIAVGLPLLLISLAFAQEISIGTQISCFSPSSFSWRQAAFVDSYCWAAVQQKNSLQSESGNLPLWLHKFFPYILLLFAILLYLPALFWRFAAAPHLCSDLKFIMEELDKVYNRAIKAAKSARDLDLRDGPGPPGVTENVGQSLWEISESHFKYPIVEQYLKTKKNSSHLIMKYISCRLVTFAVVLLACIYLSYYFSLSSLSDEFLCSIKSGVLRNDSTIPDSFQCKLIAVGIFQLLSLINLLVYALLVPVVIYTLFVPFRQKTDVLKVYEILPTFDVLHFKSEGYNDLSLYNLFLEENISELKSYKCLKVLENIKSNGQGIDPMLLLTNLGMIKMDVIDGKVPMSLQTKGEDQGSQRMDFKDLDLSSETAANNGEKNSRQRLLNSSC

SMILES: CN(C)S(=O)(=O)c1ccc(C(O)(C(F)(F)F)C(F)(F)F)cc1 [Compound 2, 4-(1,1,1,3,3,3-hexafluoro-2-hydroxypropan-2-yl)-N,N-dimethylbenzenesulfonamide]
Panx1 channel activity (BzATP-stimulated YO-PRO-1 dye uptake) (Panx1 channel): significantly blocked

SMILES: CCCN(CCC)S(=O)(=O)c1ccc(-c2ccc3[nH]ncc3c2)cc1 [Compound 3, 4-(1H-indazol-5-yl)-N,N-dipropylbenzenesulfonamide]
Panx1 channel activity (BzATP-stimulated YO-PRO-1 dye uptake) (Panx1 channel): significantly blocked

SMILES: CCCN(CCC)S(=O)(=O)c1ccc(-c2ccnc(N3CCNCC3)c2)cc1 [Compound 4]
Panx1 channel activity (BzATP-stimulated YO-PRO-1 dye uptake) (Panx1 channel): significantly blocked

SMILES: CCCN(CCC)S(=O)(=O)c1ccc(-c2cn[nH]c2)cc1 [Compound 5]
Panx1 channel activity (BzATP-stimulated YO-PRO-1 dye uptake) (Panx1 channel): significantly blocked
Panx1 inhibitory potency relative to Probenecid (patch-clamp) ([1]; voltage ramp -80 to +80 mV, various doses): more potent

Further lines, with some results ahead:

Panx1 channel activity (BzATP-stimulated YO-PRO-1 dye uptake) (Panx1 channel): significantly blocked
SMILES: CCCN(CCC)S(=O)(=O)c1ccc(-c2cnc(N(C)C)nc2)cc1 [Compound 6]

Block of Panx1 (inhibition of transfected current) ([1]; maximum doses): 100%
SMILES: CCCN(CCC)S(=O)(=O)c1ccc(C(=O)O)cc1 [probenecid, reference compound]
Withdrawal behaviors in mice (C57BL/6J mice [2]): ameliorated withdrawal behaviors
Composite withdrawal score (C57BL/6J mice [3]): significantly reduced withdrawal score
Solubility [4]: poor solubility
Withdrawal behaviors (C57BL/6J mice [5]): not effective

Reference: patent US20240166596A1, “SULFAMOYL BENZENE DERIVATIVES AND USES THEREOF” (AphioTx Inc., priority 2021, published 2024)
